Test results published in a melting point compilation (Tetko et al.; mined from patent text by program, amines drawn as free bases though some values may be those of a salt).

Row | Compound | melting point
1 | O=S(=O)(Nc1cc(Cl)cc(Cl)c1)c1cc(S(=O)(=O)Nc2cc(Cl)cc(Cl)c2)c2cc(O)ccc2c1 | 122 to 124 °C
2 | O=C1N[C@H](c2ccco2)[C@@H]1O | 133 to 135 °C
3 | COC(=O)c1ccc(C(O)C#Cc2ccccc2)cc1 (centres undefined) | 48 to 50 °C
4 | CC(=O)c1cc(N2CCOCC2)ccc1NC(=O)c1cccc2c1OCO2 | 150 to 152 °C
5 | COCCOCCOCc1c(Br)c(Br)c(Br)c(Br)c1Br | 83 °C
6 | CC(Oc1ncc(F)c(N)n1)c1ccc(F)cc1 (centres undefined) | 96 to 98 °C
7 | ClCCCCOc1ccc(Br)c(CCOCc2ccccc2)c1 | 65 to 66 °C
8 | Fc1cc(Cn2ccnc2)cc2c1Cc1c(-c3ccsc3)n[nH]c1-2 | 274 to 276 °C
9 | CC1(C)Oc2cc3nonc3cc2C(N2CCC(O[N+](=O)[O-])CC2=O)C1O (centres undefined) | 186 to 189 °C
10 | CCOP(=O)(CCNC1CCN(S(=O)(=O)c2ccc(Nc3nccc(Nc4ccc(F)cc4)n3)cc2)CC1)OCC | 195 °C
11 | CCN(CC)C(=O)Cc1c(-c2ccc(OC)cc2)nc2c(C)cc(C)nn12 | 129 to 131 °C
12 | O=S(=O)(Cl)c1ccc(-c2ccc3c(c2)OCO3)s1 | 117 to 119 °C
13 | Cc1nc(Sc2ccc(N)cc2)nc(C)c1Cl | 160 to 161 °C
14 | O=c1cc(-c2ccc(O)cc2[N+](=O)[O-])oc2ccccc12 | 277 to 279 °C
15 | CCCc1c(OCCCOc2cccc(N)c2C#N)ccc(C(C)=O)c1O | 120 to 122 °C
16 | Cc1noc(C)c1Cn1cc(-n2c(=O)n(C)n(Cc3ccccc3)c2=O)cn1 | 124 to 126 °C
17 | CS(=O)(=O)c1nccc(-c2c(-c3ccc(F)cc3)nc3sccn23)n1 | 197 to 198 °C
18 | CC(=O)CS(=O)(=O)c1ccc(O)cc1 | 118 to 121 °C
19 | CCOC(=O)c1cn(-c2nnc(C)s2)c2cc(F)c(F)cc2c1=O | 170 to 173 °C
20 | NS(=O)(=O)c1ccccc1C(Cl)Cl | 131 to 132 °C
21 | COc1cc2nc(N3CCN(C(=O)C=Cc4cccc(C(F)(F)F)c4)CC3)nc(N)c2cc1OC | 225 to 227 °C
22 | COCc1nc2cnc3ccccc3c2n1CC(C)C | 96 to 99 °C
23 | O=C1c2ccc(Cl)cc2-n2c1nc1ccccc1c2=O | 301 to 303 °C
24 | Cc1ccc2c(c1)Oc1ncc([N+](=O)[O-])cc1C(=O)N2C | 197 to 198 °C
25 | Brc1ccc(NN=C(Cc2ccco2)c2ccccc2)nc1 | 105 to 107 °C

Row | Compound | melting point
26 | COc1ccc(S(C)(=O)=O)cn1 | 85 to 86.5 °C
27 | CC(C#N)c1ccc(Cc2ccccc2CC#N)cc1 (centres undefined) | 61 to 64 °C
28 | CC(=O)NC[C@H]1CN(c2ccc(-c3noc(C(F)(F)F)n3)c(F)c2)C(=O)O1 | 192 to 193 °C
29 | c1cc(N2CCCC2)ncc1C12CCN(CC1)C2 | 119 to 121 °C
30 | CCCCCCCCNC(=O)ON=C(Cc1ccccc1)C1=CC(=O)C(C)(C)O1 | 67 to 68 °C
31 | CN1C(=O)C2C3CCC(C2C1=O)N1COc2ccccc2N=C31 (centres undefined) | 222 to 224 °C
32 | CC[C@@H](O)C1(c2onc(-c3ccc(O)cc3)c2-c2ccccc2)CC1 | 163 to 164 °C
33 | COCc1[nH]c(=O)[nH]c1C(=O)c1ccc(OC)cc1 | 211 to 212 °C
34 | OC(CCC1CCNCC1)c1cc(-c2ccccc2)nc2ccccc12 (centres undefined) | 162 °C
35 | CCCOc1ccccc1-c1nc(C)cc(O)n1 | 109 to 110 °C
36 | CN(C)C=Nc1nc(Cl)c(N=CN(C)C)c(Cl)n1 | 116 to 119 °C
37 | Cc1nn(-c2cc3nc(S(=O)(=O)Cc4ccccc4Cl)sc3cc2Cl)c(=O)n1C(F)F | 196 to 198 °C
38 | CCOC(=O)COn1c2c([nH]c(=O)c1=O)CCC1=C2C=C(n2c(C)ccc2C)CC1 | 157 to 158 °C
39 | O=C(CN1C(=O)c2ccccc2C1=O)Nc1ccccc1Oc1ccccc1 | 143 °C
40 | NC(=S)NC[C@H]1CN(c2ccc(N3CCN(C(=O)CO)CC3)c(F)c2)C(=O)O1 | 209 to 210 °C
41 | CCOC(=O)[C@@H]1C[C@H](C(=O)O)Nc2cc(Cl)cc(Cl)c21 (relative stereo) | 160 to 162 °C
42 | CCOP(=O)(OCC)C(CCc1cc(C)nc2c(C#N)c(-c3ccccc3)nn12)P(=O)(OCC)OCC | 107 °C
43 | COC(=O)c1cccc2oc(SCCCN3CCN(CC(=O)Nc4c(C(C)C)cccc4C(C)C)CC3)nc12 | 132 to 133 °C
44 | CCCn1c(=O)c2[nH]c([C@@H]3CC[C@H]4CCC[C@H]43)nc2n(CCC)c1=S (relative stereo) | 135 to 137 °C
45 | N#Cc1cn(C(CO)CCc2ccccc2)cn1 (centres undefined) | 111 to 115 °C
46 | COCC[C@H]1CN(C2=Nc3ccccc3Nc3ccc(C(F)(F)F)cc32)CCN1 | 71 to 82 °C
47 | Cc1cc(C2(O)C(=O)N(Cc3ccccc3)c3ccccc32)cc(C)c1O[Si](C)(C)C(C)(C)C (centres undefined) | 147 °C
48 | O=Cc1c(Cl)cccc1OC[C@H]1CO1 | 62 to 64 °C
49 | CC(=O)NC[C@H]1CN(c2ccc(N3CCSCC3)c(F)c2)C(=O)O1 | 186 °C
50 | CC(=O)NCC12CC(c3ccccc31)c1ccccc12 | 184 to 186 °C

Row | Compound | melting point
51 | Cn1ccc(O)cc1=O | 165 to 169 °C
52 | O=C(Cc1ccc(Cl)cc1)Nc1cccc(-n2nc(C(F)(F)F)cc2C(F)(F)F)c1 | 209 to 211 °C
53 | COCCNC(=O)c1ccc(C(=O)N2CCN(c3ncccc3NCC(C)C)CC2)nc1 | 123 to 125 °C
54 | O=C(Nc1ccc2ccc(Cl)nc2n1)c1ccc(C(F)(F)F)cc1 | 236 °C
55 | CC1(C)CCC(C)(C)c2cc(S(=O)(=O)c3ccc(C(=O)O)cc3)ccc21 | 218 to 220 °C
56 | N#CSCC(I)=C(I)CCl | 76 to 78 °C
57 | COC(=O)Nc1nc2ccc(OS(=O)(=O)c3cccc(OC(F)(F)C(F)F)c3)cc2[nH]1 | 186 °C
58 | CCOC(=O)CC1CN(c2c(C)cccc2C)C(=N)N1c1c(C)cccc1C (centres undefined) | 142 to 144 °C
59 | O=c1c2cc(F)c(F)cc2nc(C(S)c2ncnc3[nH]cnc23)n1-c1ccccc1Cl (centres undefined) | 208 °C
60 | CSc1nccc(C(C)=NO)n1 | 150 to 152 °C
61 | CCCc1c(OCCCCCCc2cccc(OCCCCCCCC(=O)O)c2CCC(=O)O)ccc2c1OCCC2=O | 79 to 81 °C
62 | Oc1cccc(CCc2nc3ccccc3s2)c1 | 129 to 130 °C
63 | NC(=O)OC(CC(=NNC(N)=S)c1ccccc1)c1ccccc1 (centres undefined) | 149 to 150 °C
64 | CC1(c2ccccc2)SC(=Nc2ccc(Cl)cc2)N(Nc2ccccc2)C1=O (centres undefined) | 53 to 54 °C
65 | CCCCCCCCCCCCCCCCCC(=O)Oc1cc(C)c(O)c(C(C)(C)C)c1 | 64 to 65.5 °C
66 | Cc1cc(-c2c(-c3ccc(S(N)(=O)=O)cc3)cnn(-c3ccc(F)cc3)c2=O)ccc1F | 202 to 204 °C
67 | COc1cccc(C(=O)Nc2ccc3c(c2)CCC3=O)c1 | 203 to 204 °C
68 | CCCCCCC(C(=O)O)n1c(C(F)(F)F)nc2cc(-c3ccccc3-c3nn[nH]n3)ccc21 (centres undefined) | 128 to 130 °C
69 | O=C(Nc1ccc(C(F)(F)F)cc1)NC(Cc1ccc(C(F)(F)F)cc1)C(O)c1ccc(F)cc1 (centres undefined) | 160 to 161 °C
70 | CSc1ccc(C(O)(c2ccc(Cl)cc2)C2CCN(CCO)C2=O)cc1 (centres undefined) | 141 °C
71 | CC(C)(C)OC(=O)c1cnc(NC(=O)[C@H](CC2CCCC2)c2ccc(S(C)(=O)=O)c(Cl)c2)cn1 | 121 to 127 °C
72 | COc1cccc(C23CCN(C(=O)c4ccccc4)CC2CCC(=O)C3)c1 (centres undefined) | 78 °C
73 | CC(C)(C)c1ccc(-c2cc(C(=O)/C=C/c3ccc(C(=O)O)cc3)cc3c2C(C)(C)CCC3(C)C)cc1 | 241 °C
74 | COc1cc(C=CC(=O)Nc2cnc3ccccc3c2-c2ccccc2Cl)cc(OC)c1OC(C)=O | 237 to 238 °C
75 | CSC(C)(C)C(=O)N[C@@H](CSSC[C@H](NC(=O)C(C)(C)SC)C(=O)O)C(=O)O | 128 to 129 °C

Row | Compound | melting point
76 | ON=C1CCn2c(-c3ccc(Br)cc3)nc3c(Cl)ccc1c32 | > 250 °C
77 | CSc1cc(CCC(=O)OC(C)(C)C)nc(-c2nc(=O)c3ccccc3s2)c1 | 155 to 156 °C
78 | C=CCN(c1ccccc1CC(=O)O)c1c(Cl)cccc1Cl | 148 °C
79 | Fc1ccc2[nH]c(C3=Cc4ccccc4C3)cc2c1 | 272 to 275 °C
80 | O=C(CN1CCOCC1)Nc1cccc2c1C(=O)c1c-2n[nH]c1-c1ccc(N2CCNCC2)cc1 | 259 °C
81 | O=S(=O)(c1ccc(I)cc1)N1CCOCC1 | 141 to 144 °C
82 | COC(=O)C(Cc1ccc(OS(=O)(=O)C(F)(F)F)cc1)NC(=O)OCc1ccccc1 (centres undefined) | 70 to 73 °C
83 | NS(=O)(=O)c1cccc(C(=O)CCl)c1 | 118 °C
84 | COCc1nnc(-c2cccnc2)n1-c1c(Cl)c(C)cc2[nH]c(=O)c(=O)[nH]c12 | 229 to 231 °C
85 | COc1cccc(-c2c3cccc(OC(C)=O)c3c(OC(C)=O)c3c(OC(C)=O)cccc23)c1 | 278 °C
86 | CCOC(=O)c1cn2cnc3ccccc3c2c1C(=O)OCC | 125 to 126 °C
87 | CCCC1(C)C(=O)N(CC(=O)Nc2c(C(C)C)cccc2C(C)C)C(=O)N1c1ccc(C)cc1 (centres undefined) | 186 °C
88 | FC(F)(F)C1(c2cc(Cl)cc(Cl)c2)CC(c2ccc(Br)c3ccccc23)=NO1 (centres undefined) | 127 to 130 °C
89 | N#Cc1cccc2c1CCC2=O | 122 °C
90 | CCOc1nn(Cc2ccc(OCc3nc4ccccc4n3C)cc2)cc1CCC(=O)O | 177 to 178 °C
91 | COC(=O)c1c(C(F)F)nc(C(F)(F)F)c(C(O)c2cccs2)c1CC(C)C (centres undefined) | 78 to 88 °C
92 | O=C(O)CCCCCCCc1nn(-c2ccccc2)c2c1CCC2 | 55 to 57 °C
93 | CC1NC(=O)NN=C1c1ccc2c(c1)C(C)(C)C(=O)N2 (centres undefined) | 292 °C
94 | COc1ccc(Cl)cc1C(=O)NCCc1ccc(CC2SC(=O)NC2=O)cc1 (centres undefined) | 182 °C
95 | O=C(O)c1cccc(-c2cnn3c(O)ncnc23)c1 | > 300 °C
96 | CCOc1cc2c(cc1OCC)C(C(C#N)SCCC(=O)O)=NCC2 (centres undefined) | 106 to 108 °C
97 | NC(=O)c1sc2ncnc(-c3cc4c(c(OCc5ccccc5)c3)CCO4)c2c1N | 239 °C
98 | C=CCN1C(=O)C(C)(CN2CCN(c3cccc4c3OCCO4)CC2)N=C1c1cccnc1 (centres undefined) | 102 to 105 °C
99 | CCN(CC)C(=O)CCc1nc(-c2ccccc2)nc2ccc(Br)cc12 | 146 °C
